Reference: ChEMBL document CHEMBL1143031, “First synthesis of 7alpha- and 7beta-amino-DHEA, dehydroepiandrosterone (DHEA) analogues and preliminary evaluation of their cytotoxicity on Leydig cells and TM4 Sertoli cells” (2007)

Tests used:
Assay type in all cases: functional
[1] = Effect on apoptosis in BALB/c mouse sertoli TM4 cells assessed as cell viability at 35 uM after 24 hrs by DAPI test; details: TM4, 24 h, read-out: Activity
[2] = Effect on apoptosis in Sprague-Dawley rat Leydig cells assessed as cell viability at 70 uM after 24 hrs by DAPI test; details: read-out: Activity
[3] = Effect on necrosis in BALB/c mouse sertoli TM4 cells assessed as cell viability at 35 uM after 24 hrs by Trypan blue test; details: TM4, 24 h, read-out: Activity
[4] = Effect on cell necrosis in Sprague-Dawley rat Leydig cells assessed as cell viability at 70 uM after 24 hrs by trypan blue test; details: read-out: Activity
[5] = Effect on apoptosis in Sprague-Dawley rat Leydig cells assessed as cell viability at 35 uM after 24 hrs by DAPI test; details: read-out: Activity
[6] = Effect on necrosis in BALB/c mouse sertoli TM4 cells assessed as cell viability at 70 uM after 24 hrs by Trypan blue test; details: TM4, 24 h, read-out: Activity
[7] = Effect on apoptosis in BALB/c mouse sertoli TM4 cells assessed as cell viability at 70 uM after 24 hrs by DAPI test; details: TM4, 24 h, read-out: Activity
[8] = Effect on cell necrosis in Sprague-Dawley rat Leydig cells assessed as cell viability at 35 uM after 24 hrs by trypan blue test; details: read-out: Activity

| SMILES | viability at 35 µM [1] [%] | viability at 70 µM [2] [%] | viability at 35 µM [3] [%] | viability at 70 µM [4] [%] | viability at 35 µM [5] [%] | viability at 70 µM [6] [%] | viability at 70 µM [7] [%] | viability at 35 µM [8] [%] |
| --- | --- | --- | --- | --- | --- | --- | --- | --- |
| C[C@]12CC[C@H](O)CC1=C[C@H](N)[C@@H]1[C@@H]2CC[C@]2(C)C(=O)CC[C@@H]12 | 82 | 89 | 64 | 85 | 92 | 0 | 79 | 93 |
| C[C@]12CC[C@H](O)CC1=CC[C@@H]1[C@@H]2CC[C@]2(C)C(=O)CC[C@@H]12 [PRASTERONE] | 90 | 95 | 92 | 76 | 95 | 92 | 90 | 86 |
